Reference: patent publication US4632925A, “N-substituted diphenylpiperidines and antiobesity use thereof” (Hoffmann-La Roche Inc., priority 1985, dated 1986)

Assays:
[1] = tested on: isolated perfused rat pancreas (insulin secretion); assay: Insulin-secretory activity in the isolated perfused rat pancreas; design: species or system rat (female Charles River); conditions: 50 μM; 16.7 mM glucose; index > 1 indicates suppression of insulin secretion
Method: DETERMINATION OF INSULIN-SECRETORY ACTIVITY IN THE ISOLATED PERFUSED RAT PANCREAS
Pancreases were obtained from young adult female Charles River rats weighing from 200-300 g. The animals were anesthesized with sodium pentobarbitol (45 mg/kg), injected intraperitoneally, and the pancreas with its intact vasculature was removed and connected to an extracorporeal perfusion apparatus.
The basic perfusion solution contained: 133 mM NaCl, 4.4 mM KCl, 2.5 mM MgSO4, 2.4 mM Ca gluconate, 1.5 mM KH2 PO4, 29.4 mM HaHCO3, 4% dextran and 0.2% bovine serum albumin and glucose as discussed below. The perfusion flow rate was kept constant at 4 ml/min. After a 15-20 minute equilibration period, the experimental protocol was begun. The pancreatic effluent was collected in either one or four-minute fractions.
The perfusion was run in the following sequence for each test compounds:
30 min 16.7 mM glucose--internal control
30 min 16.7 mM glucose and test compound
10 min 16.7 mM glucose--to check pancreas viability
The perfusion for the nontreated pancreas preparation was run as above, except that the test compound was omitted and replaced with perfusion solution.
Test compounds were dissolved in 90% ethanol or dimethylsulfoxide to a concentration of 25 mM and then diluted in the perfusion buffer to the desired concentration. The perfusion effluent was collected in one or four minute fractions--the samples were checked immediately, aliquoted for submission to radioimmunoassay and stored at -20° C. until the time of assay. The radioimmunoassay of insulin was carried out by a back-titration method using a pure rat insulin standard.
To assess the inhibitory activity of the test compounds, an inhibition index was calculated. The inhibition index is derived by comparing the insulin secretion response from treated versus nontreated pancreas preparations. For each preparation, a ratio of insulin secretion was calculated from the area under the insulin secretion curve of the first pulse of 16.7 mM glucose divided by the area under the curve of the second pulse of 16.7 mM glucose containing compound.

[2] = Glucose clearance: acute in vivo model; design: species or system Sprague-Dawley rats; conditions: Rattus norvegicus, po, 0.5 h; 100 mg/kg intragastric, 30 min before i.p. glucose 1 g/kg; circulating glucose at 30 min; >100% indicates activity
Method: GLUCOSE CLEARANCE: ACUTE IN VIVO MODEL
The rationale for this test is that compounds which suppress insulin secretion should increase circulating glucose levels above those observed in controls following the administration of a high glucose load. Sprague-Dawley rats which range in weight from 150 to 180 grams after an overnight fast of 16 or 18 hours are given the test compound (100 mg/kg body weight) by intragastric administration 30 minutes before the intraperitoneal administration of glucose (1 g/kg body weight). Circulating glucose levels are determined immediately before glucose administration and 30, 60 and 90 minutes after glucose administration. Active compounds increase circulating glucose levels compared to controls. Since glucose levels peak at 30 minutes following glucose administration, the difference in circulating glucose levels between controls and treated rats at 30 minutes is used as an index of activity. The data are expressed as percent of control.

[3] = Antiobesity effects in obese Zucker rats; type: in vivo, genetically obese male Zucker rats; conditions: for Circulating Insulin: last day of treatment
Method: ANTIOBESITY EFFECTS IN OBESE ZUCKER RATS
Genetically Obese Male Zucker rats were kept in temperature (22° C.) and light (12 hours light-dark cycle) regulated rooms. One week prior to the start of the experiment, the rats were transferred to individual wirebottomed cages and trained to eat a powdered chow diet (Ralston Purina Co., St. Louis, Mo.) ad libitum.
At the beginning of the experiment, the control group contributed to eat the chow diet and the experimental animals were given a chow diet containing drug. The amount of drug administered was calculated from the food intake per kg body weight for each experimental group. The age of the rats at the start of the drug treatment was two to three months. The period of treatment was 28 to 64 days. Food intake and body weights were recorded periodically (once each day to twice a week) throughout the duration of the study. Plasma samples for insulin and glucose determinations were taken from clipped tails. Carcass composition was determined at the end of the treatment period and, or comparative purposes, prior to the start of treatment.

[4] = Antiobesity effects in obese Zucker rats; type: in vivo, genetically obese male Zucker rats; conditions: 14 days

SMILES: C(=C(c1ccccc1)c1ccccc1)C1CCN(CCCCCCCCc2cccnc2)CC1 [Example 25, 3-[8-[4-(2,2-diphenylethenyl)-1-piperidinyl]octyl]pyridine]
- Perfused Pancreas Inhibition Index [1]: 38
- response vs control in vivo at 100 mg/kg [2]: 127%
- Body Weight Gain (treated minus control) ([3]; 9 mg/kg, 28 days): +9 g
- Food Intake ([3]; 9 mg/kg, 28 days): 91 % of control
- Circulating Insulin ([3]; 9 mg/kg, 28 days): 83 % of control
- Body Weight Gain (treated minus control) ([3]; 17 mg/kg, 28 days): -16 g
- Food Intake ([3]; 17 mg/kg, 28 days): 89 % of control
- Circulating Insulin ([3]; 17 mg/kg, 28 days): 76 % of control
- Circulating Insulin ([3]; 24 mg/kg, 28 days, * p < 0.05): 47 % of control
- Body Weight Gain (treated minus control) ([3]; 24 mg/kg, 28 days, * p < 0.05): -32 g
- Food Intake ([3]; 24 mg/kg, 28 days, * p < 0.05): 82 % of control
- Circulating Insulin ([3]; 28 mg/kg, 64 days, * p < 0.05): 47 % of control
- Body Weight Gain (treated minus control) ([3]; 28 mg/kg, 64 days, * p < 0.05): -88 g
- Carcass Lipid Difference (treated minus control) ([3]; 28 mg/kg, 64 days, * p < 0.05): -62 g
- Food Intake ([3]; 28 mg/kg, 64 days, * p < 0.05): 81 % of control
- Circulating Insulin ([3]; 34 mg/kg, 28 days, * p < 0.05): 33 % of control
- Body Weight Gain (treated minus control) ([3]; 34 mg/kg, 28 days, * p < 0.05): -55 g
- Food Intake ([3]; 34 mg/kg, 28 days, * p < 0.05): 83 % of control
- Relative Body Weight Gain Index ([3]; 38 mg/kg, 14 days, gain / days / dose (g/kg)): 92
- Food Intake ([3]; 38 mg/kg, 14 days, marked *): 73 % of control
- Food Intake ([3]; 28 days of treatment, in words): dose dependent decrease
- body weight ([3]; 28 days of treatment, in words): dose dependent decrease in body weight
- insulin levels ([3]; 28 days of treatment, in words): dose dependent decrease
- body weight ([3]; 64 days, in words): Reduced body weight
- carcass lipid ([3]; 64 days, in words): decreased carcass lipid
- Glucose levels ([3]; treatment of obese rats, in words): unaltered by treatment
- Body Weight Gain (treated minus control) ([4]; 38 mg/kg, marked *): -49 g

SMILES: O=C(CCCCCCCCc1cccnc1)N1CCC(C=C(c2ccccc2)c2ccccc2)CC1 [Example 30, 4-(2,2-Diphenylethenyl)-1-[1-oxo-9-(3-pyridinyl)nonyl]piperidine]
- Perfused Pancreas Inhibition Index [1]: 1.4
- response vs control in vivo at 100 mg/kg [2]: 100%
- Body Weight Gain (treated minus control) ([3]; 49 mg/kg, 14 days): -12 g
- Food Intake ([3]; 49 mg/kg, 14 days): 100 % of control
- Relative Body Weight Gain Index ([4]; 49 mg/kg, gain / days / dose (g/kg)): 17
